Measured values published in article PMC6631223, “Chain-Branched Polyhydroxylated Octahydro-1H-Indoles as Potential Leads against Lysosomal Storage Diseases” (Pharmaceuticals, 2019).
Marks after values point to notes of the source that are not given here.

Columns and labels:
Type in all cases: biochemical
Rat intestinal maltase = experiment: Glycosidase inhibition: rat intestinal maltase; conditions: maltose, pH 6.8, 1000 μM
From the text: (§1) The enzymes α-glucosidase (from yeast, rice), β-glucosidase (from almonds, bovine liver), α-galactosidase (from coffee beans), β-galactosidase (from bovine liver), α-mannosidase (from jack beans), β-mannosidase (from snails), α-L-fucosidase (from bovine kidney), α-L-rhamnosidase (from Penicillium decumbens), β-glucuronidases (from Escherichia coli), α,α-trehalase (from porcine kidney), amyloglucosidase (from Aspergillus niger), p-nitrophenyl glycosides, and various disaccharides were purchased from Sigma-Aldrich Co. Brush border membranes were prepared from the rat small intestine according to the method of Kessler et al., and were assayed at pH 6.8 for rat intestinal maltase using maltose. For rat intestinal glucosidases and porcine kidney trehalase activities, the reaction mixture (0.2 mL) contained 25 mM substrate and the appropriate amount of enzyme, and the incubations were performed for 10 min at 37 °C. The reaction was stopped by heating at 100 °C for 3 min. After centrifugation (600 g; 10 min), 0.035 mL of the resulting reaction mixture were added to 2.1 mL of the Glucose CII-test Wako (Wako Pure Chemical Ind., Osaka, Japan). The absorbance at 505 nm was measured to determine the amount of the released D-glucose. Other glycosidase activities were determined using an appropriate p-nitrophenyl glycoside as substrate at the optimum pH of each enzyme. The reaction mixture (0.2 mL) contained 2 mM of the substrate and the appropriate amount of enzyme. The reaction was stopped by adding 0.4 mL of 400 mM Na2CO3. The released p-nitrophenol was measured spectrometrically at 400 nm.

[1] = molecular target: T1, Lactase (β-Galactosidase) (Rattus norvegicus, UniProt Q02401); experiment: Glycosidase inhibition: lactase; conditions: read-out: inhibition % at 1000 μM
T1 construct: Brush border membranes were prepared from the rat small intestine; from tissue; host or cells: rat small intestine brush border membranes (inferred)
T1 sequence (Q02401 868-1928): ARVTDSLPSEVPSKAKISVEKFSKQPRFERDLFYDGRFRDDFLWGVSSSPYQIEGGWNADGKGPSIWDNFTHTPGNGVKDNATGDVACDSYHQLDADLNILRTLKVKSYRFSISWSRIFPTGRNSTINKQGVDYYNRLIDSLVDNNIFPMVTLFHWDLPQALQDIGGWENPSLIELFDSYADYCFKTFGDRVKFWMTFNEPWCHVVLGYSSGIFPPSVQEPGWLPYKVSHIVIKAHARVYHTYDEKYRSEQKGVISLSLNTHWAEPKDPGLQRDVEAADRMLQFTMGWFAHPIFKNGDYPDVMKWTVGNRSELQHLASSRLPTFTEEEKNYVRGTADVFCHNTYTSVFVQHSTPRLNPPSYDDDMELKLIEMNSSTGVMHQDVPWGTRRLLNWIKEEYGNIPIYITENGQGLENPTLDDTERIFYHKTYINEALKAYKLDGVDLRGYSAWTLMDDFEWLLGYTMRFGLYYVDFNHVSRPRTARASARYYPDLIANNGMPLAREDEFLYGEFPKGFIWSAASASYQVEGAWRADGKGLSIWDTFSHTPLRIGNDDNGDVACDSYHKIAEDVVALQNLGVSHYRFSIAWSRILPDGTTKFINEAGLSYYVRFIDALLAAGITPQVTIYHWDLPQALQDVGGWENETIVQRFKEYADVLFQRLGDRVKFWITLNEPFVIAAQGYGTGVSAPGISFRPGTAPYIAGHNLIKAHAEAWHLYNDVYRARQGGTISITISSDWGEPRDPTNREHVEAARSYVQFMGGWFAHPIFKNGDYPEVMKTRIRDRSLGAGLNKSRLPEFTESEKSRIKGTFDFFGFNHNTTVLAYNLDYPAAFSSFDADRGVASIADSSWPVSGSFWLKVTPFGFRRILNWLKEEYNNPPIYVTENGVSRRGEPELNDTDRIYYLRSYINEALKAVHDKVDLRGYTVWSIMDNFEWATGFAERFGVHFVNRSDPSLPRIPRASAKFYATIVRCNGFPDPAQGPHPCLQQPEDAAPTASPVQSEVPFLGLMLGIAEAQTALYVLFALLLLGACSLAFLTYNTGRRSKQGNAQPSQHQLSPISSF
From the text: as §1

[2] = molecular target: T2, α-Galactosidase (coffee beans) (Coffea arabica, UniProt Q42656); experiment: Glycosidase inhibition: α-galactosidase (coffee beans); conditions: read-out: inhibition % at 1000 μM
T2 construct: purchased Sigma-Aldrich Co
From the text: as §1

Amyloglucosidase = molecular target: T3, Amyloglucosidase (Aspergillus niger, UniProt P69328); experiment: Glycosidase inhibition: amyloglucosidase (Aspergillus niger); conditions: amyloglucosidase, Aspergillus niger; 1000 μM
T3 construct: purchased Sigma-Aldrich Co
From the text: as §1

α-L-Rhamnosidase = α-L-Rhamnosidase (Penicillium decumbens, UniProt S7ZS15); experiment: Glycosidase inhibition: α-L-rhamnosidase (Penicillium decumbens)
From the text: as §1, with “After centrifugation (600 g; 10 min), 0.035 mL of the resulting reaction mixture were added to 2.1 mL of the Glucose CII-test Wako (Wako Pure Chemical Ind., Osaka, Japan).” left out, “The reaction mixture (0.2 mL) contained 2 mM of the substrate and the appropriate amount of enzyme. The reaction was stopped by adding 0.4 mL of 400 mM Na2CO3.” left out

[3] = molecular target: T4, α-Mannosidase (jack bean) (Canavalia ensiformis, UniProt C0HJB3); experiment: Glycosidase inhibition: α-mannosidase (jack bean)
T4 construct: purchased Sigma-Aldrich Co
T4 sequence (C0HJB3 1-981): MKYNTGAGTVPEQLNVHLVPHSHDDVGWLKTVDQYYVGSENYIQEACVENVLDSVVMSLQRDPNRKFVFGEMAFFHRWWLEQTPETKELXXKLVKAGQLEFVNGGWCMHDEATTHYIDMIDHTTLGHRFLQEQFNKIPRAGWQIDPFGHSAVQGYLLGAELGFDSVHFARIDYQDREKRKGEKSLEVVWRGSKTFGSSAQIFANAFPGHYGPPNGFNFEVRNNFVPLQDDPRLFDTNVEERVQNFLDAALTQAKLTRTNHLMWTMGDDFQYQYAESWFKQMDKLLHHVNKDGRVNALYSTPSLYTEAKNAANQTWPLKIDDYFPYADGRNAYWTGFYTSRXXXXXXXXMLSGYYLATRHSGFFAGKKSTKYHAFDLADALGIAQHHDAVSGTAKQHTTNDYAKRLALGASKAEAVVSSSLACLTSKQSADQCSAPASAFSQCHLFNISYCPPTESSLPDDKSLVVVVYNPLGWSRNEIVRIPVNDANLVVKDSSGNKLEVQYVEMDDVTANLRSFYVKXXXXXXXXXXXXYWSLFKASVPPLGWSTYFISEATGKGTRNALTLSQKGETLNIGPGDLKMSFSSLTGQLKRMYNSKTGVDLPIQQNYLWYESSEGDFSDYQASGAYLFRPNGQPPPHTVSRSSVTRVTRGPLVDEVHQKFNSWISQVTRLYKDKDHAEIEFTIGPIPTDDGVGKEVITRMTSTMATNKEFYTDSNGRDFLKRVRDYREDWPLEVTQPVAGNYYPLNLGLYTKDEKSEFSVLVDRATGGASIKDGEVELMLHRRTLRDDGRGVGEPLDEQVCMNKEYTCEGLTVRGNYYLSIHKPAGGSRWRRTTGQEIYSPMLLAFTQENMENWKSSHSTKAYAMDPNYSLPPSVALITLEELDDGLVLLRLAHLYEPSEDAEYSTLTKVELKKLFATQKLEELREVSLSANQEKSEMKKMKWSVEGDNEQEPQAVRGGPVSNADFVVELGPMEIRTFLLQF
From the text: as §1, with “After centrifugation (600 g; 10 min), 0.035 mL of the resulting reaction mixture were added to 2.1 mL of the Glucose CII-test Wako (Wako Pure Chemical Ind., Osaka, Japan).” left out, “The reaction mixture (0.2 mL) contained 2 mM of the substrate and the appropriate amount of enzyme. The reaction was stopped by adding 0.4 mL of 400 mM Na2CO3.” left out

β-Mannosidase (snail) = experiment: Glycosidase inhibition: β-mannosidase (snail); conditions: 1000 μM
From the text: as §1

T2 sequence (Q42656 16-378): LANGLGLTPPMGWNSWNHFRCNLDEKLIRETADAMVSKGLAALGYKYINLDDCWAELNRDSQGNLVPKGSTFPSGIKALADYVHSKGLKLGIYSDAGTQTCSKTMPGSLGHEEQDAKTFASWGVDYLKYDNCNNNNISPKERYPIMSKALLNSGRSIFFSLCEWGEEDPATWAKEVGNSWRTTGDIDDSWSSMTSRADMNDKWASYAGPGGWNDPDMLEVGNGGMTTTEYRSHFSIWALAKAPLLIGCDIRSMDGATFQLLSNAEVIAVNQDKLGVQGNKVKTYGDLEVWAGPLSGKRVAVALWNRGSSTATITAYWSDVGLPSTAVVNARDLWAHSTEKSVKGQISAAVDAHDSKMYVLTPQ
T3 sequence (P69328 25-640): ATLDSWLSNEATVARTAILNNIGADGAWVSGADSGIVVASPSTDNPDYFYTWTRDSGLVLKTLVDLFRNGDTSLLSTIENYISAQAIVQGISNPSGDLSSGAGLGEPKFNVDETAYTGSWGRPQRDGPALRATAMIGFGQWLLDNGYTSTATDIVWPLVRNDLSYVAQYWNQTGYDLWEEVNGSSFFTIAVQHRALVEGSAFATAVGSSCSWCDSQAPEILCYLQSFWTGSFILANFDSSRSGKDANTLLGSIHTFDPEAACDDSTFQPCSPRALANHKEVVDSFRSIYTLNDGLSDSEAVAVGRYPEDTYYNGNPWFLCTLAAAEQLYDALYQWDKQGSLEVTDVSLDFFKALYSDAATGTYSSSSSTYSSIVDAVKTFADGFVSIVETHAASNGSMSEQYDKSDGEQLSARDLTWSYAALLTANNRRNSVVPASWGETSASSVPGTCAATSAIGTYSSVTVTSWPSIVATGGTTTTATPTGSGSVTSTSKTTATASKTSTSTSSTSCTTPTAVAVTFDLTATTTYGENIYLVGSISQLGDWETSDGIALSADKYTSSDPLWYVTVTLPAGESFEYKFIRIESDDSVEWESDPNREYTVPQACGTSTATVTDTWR
Chain of α-L-Rhamnosidase (S7ZS15 entry or part of it): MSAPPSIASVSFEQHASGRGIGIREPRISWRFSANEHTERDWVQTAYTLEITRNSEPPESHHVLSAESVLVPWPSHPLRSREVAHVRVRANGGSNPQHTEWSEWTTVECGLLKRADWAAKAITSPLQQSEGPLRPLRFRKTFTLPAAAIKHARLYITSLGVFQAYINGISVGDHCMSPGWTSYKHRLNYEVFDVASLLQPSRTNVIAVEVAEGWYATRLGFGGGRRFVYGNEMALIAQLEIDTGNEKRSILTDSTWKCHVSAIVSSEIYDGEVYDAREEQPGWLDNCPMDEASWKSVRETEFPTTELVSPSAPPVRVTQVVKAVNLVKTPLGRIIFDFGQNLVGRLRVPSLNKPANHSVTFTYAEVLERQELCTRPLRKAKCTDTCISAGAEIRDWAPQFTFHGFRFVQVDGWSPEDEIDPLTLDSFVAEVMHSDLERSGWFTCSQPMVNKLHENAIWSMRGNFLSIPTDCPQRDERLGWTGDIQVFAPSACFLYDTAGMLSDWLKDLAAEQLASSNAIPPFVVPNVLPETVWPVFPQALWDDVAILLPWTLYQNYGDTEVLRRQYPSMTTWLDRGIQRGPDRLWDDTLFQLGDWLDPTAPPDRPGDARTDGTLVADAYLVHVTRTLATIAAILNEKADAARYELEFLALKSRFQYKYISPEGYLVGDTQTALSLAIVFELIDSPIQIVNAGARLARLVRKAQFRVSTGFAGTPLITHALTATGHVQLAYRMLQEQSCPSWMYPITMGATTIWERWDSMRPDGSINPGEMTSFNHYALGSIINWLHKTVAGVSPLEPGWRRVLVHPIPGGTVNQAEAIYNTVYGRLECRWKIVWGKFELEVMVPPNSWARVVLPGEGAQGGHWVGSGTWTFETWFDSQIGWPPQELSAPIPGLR

Row | Structure (SMILES) | inhibition % at 1000 μM (Rat intestinal maltase) | inhibition at 1000 µM [1] | inhibition at 1000 µM [2] | inhibition at 1000 µM (Amyloglucosidase) | inhibition at 1000 µM (α-L-Rhamnosidase) | inhibition at 1000 µM [3] | inhibition % at 1000 μM (β-Mannosidase (snail))
1 | CC[C@@H]1CN[C@H]2C[C@@H](O)[C@H](O)[C@@H](O)[C@H]12 [Compound 10, (3S,3aR,4S,5S,6R,7aS)-3-Ethyloctahydro-1H-indole-4,5,6-triol] | 4.1% ^a | 0.6% | 15.9% | 0% | 0% | 0% | 0% ^a
2 | CC[C@H]1CN[C@H]2C[C@@H](O)[C@H](O)[C@@H](O)[C@H]12 [Compound 13, (3R,3aR,4S,5S,6R,7aS)-3-ethyloctahydro-1H-indole-4,5,6-triol] | 0% ^a | 7.4% | 0% | 0% | 0% | 0% | 2.3% ^a
